Here are results for 23 molecules from US20140357662A1, “THIENO (2,3 - C) PYRAZOLES FOR USE AS POTASSIUM CHANNEL INHIBITORS” (XENTION LIMITED, priority 2011, published 2014).

This test concerns the target T1, rat Kir3.1/3.4 (Rattus norvegicus, UniProt P48548+P63251).
T1 construct: expressed in transfected cells; host or cells: HEK293 (Human Embryonic Kidney 293), stably transfected
T1 sequence (P63251 1-501): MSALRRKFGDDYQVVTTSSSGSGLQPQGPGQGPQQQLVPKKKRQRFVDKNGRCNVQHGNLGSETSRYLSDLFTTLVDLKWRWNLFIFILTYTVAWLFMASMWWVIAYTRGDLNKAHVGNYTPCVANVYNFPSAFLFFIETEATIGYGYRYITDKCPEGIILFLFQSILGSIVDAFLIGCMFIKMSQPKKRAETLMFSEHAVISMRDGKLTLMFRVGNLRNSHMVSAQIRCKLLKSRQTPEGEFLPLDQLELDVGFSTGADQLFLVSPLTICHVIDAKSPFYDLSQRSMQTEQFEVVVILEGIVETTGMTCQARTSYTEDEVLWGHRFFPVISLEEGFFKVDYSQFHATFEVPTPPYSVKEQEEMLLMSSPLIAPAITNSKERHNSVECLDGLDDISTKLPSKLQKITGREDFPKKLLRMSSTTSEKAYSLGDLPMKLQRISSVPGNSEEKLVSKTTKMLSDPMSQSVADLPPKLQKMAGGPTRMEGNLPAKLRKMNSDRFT
T1 sequence (P48548 1-419): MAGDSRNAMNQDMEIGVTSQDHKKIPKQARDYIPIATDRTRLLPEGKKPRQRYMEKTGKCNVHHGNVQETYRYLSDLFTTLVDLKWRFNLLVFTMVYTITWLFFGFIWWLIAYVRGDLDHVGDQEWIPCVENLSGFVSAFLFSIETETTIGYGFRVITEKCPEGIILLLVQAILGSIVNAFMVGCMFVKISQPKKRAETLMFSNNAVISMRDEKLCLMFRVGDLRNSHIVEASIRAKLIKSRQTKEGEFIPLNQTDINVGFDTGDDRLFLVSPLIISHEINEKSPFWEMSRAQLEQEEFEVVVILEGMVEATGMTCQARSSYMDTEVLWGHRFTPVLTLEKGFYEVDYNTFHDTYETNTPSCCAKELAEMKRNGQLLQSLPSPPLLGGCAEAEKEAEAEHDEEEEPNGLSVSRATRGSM
Kind of test: Kir3.1/3.4 Electrophysiology Method (manual whole-cell patch clamp). It is filed as cell-based. Particulars: Human Embryonic Kidney 293 stably transfected with rat Kir3.1/3.4; inhibition of leak-subtracted current at -140 mV. On the procedure: Compound activity against the recombinant G-protein activated inward rectifier current encoded by the heterotetramer Kir3.1/3.4 was assessed using manual whole-cell patch technique. The heterotetramer forms the pore-forming channel that conducts the acetylcholine/adenosine-activated potassium current in the heart.
For whole-cell patch-clamp studies, cells (Human Embryonic Kidney 293 stably transfected with rat Kir3.1/3.4) were seeded onto glass coverslips before recordings were made. Cells were seeded in sterile 30 mm Petri dishes at a density to enable isolated cells to be selected for patch clamp experiments. The dishes were stored in a humidified, gassed (5% CO2) incubator at 37° C. until use.
Whole-cell patch-clamp recordings of membrane currents were made following gigaohm seal formation between the patch electrode and the cell using HEKA EPC-9/10 amplifiers controlled by Pulse Software (Ver8.5x/8.6x/8.7x, HEKA, Germany). Coverslips seeded with cells were placed in a recording chamber mounted on the stage of an inverted microscope. During the experiment, the cell of interest was continuously superfused with bather solution delivered via a cannula placed in close proximity to the cell to enable control of the extracellular solution environment. Only those cells with a current <−500 pA (current at −140 mV) were used for experiments. During experiments, series resistance was compensated by a minimum of 70%.
Electrophysiology voltage-step protocols and analysis of data were performed as follows. Data was sampled at 5 kHz, and filtered with a −3 dB bandwidth of 2.5 kHz. Cells were held at a voltage of −60 mV. Currents were evoked by a depolarising voltage step to +60 mV (100 ms) before a ramp-repolarisation (0.4 V·s^−1) to −140 mV (100 ms) before returning to −60 mV. The command waveform was repeatedly applied every 10 s throughout the experiment. Mean currents during 1-99% of the time at −140 mV were analysed using Pulsefit software (v8.x, HEKA, Germany). The voltage protocol was repeatedly applied to achieve a stable current baseline in bather before the test substance was superfused via the cannula in close proximity to the cell under investigation. The test substance was allowed to equilibrate during which time voltage protocol was repeatedly applied and recorded. On reaching steady-state inhibition, the cell was superfused with an identical bather solution containing zero external potassium chloride (replaced by equimolar NaCl). The identical current measurement was made in the absence of potassium to assess the passive leak at −140 mV. The leak current was subtracted from the control and steady-state drug current values. The percentage inhibition of the leak-subtracted current in the presence of test substance was calculated relative to the control leak-subtracted pre-drug value. Internal patch-pipette solution contained in mM: 110 KCl, 20 NaCl, 0.9 GTPγS, 5 Mg-ATP, 5 EGTA, 10 HEPES, pH7.2 corrected with KOH. The external superfusate composition in mM was: 150 (or 160) NaCl, 10 (or 0) KCl, 3 CaCl2, 1 MgCl, 10 HEPES, pH 7.4 corrected with NaOH.
On the technique in general: The patch-clamp technique gives a direct electrical read-out from membranes.

Broadly, the IC50 is the concentration needed to halve the response being measured. Read a high IC50 as a need for much substance. Molecule `c1ccc(-c2csc3[nH]nc(N4CCC(COCCN5CCCC5)CC4)c23)cc1` [Compound 1, 4-phenyl-3-[4-(2-pyrrolidin-1-ylethoxymethyl)-1-piperidyl]-1H-thieno[2,3-c]pyrazole] came in with an IC50 of less than 500 nM. For `Brc1sc2[nH]nc(N3CC4CC3CC4OCCN3CCCC3)c2c1-c1ccccc1` (centres unmarked) [Compound 2, 5-bromo-4-phenyl-3-[5-(2-pyrrolidin-1-ylethoxy)-2-azabicyclo[2.2.1]heptan-2-yl]-1H-thieno[2,3-c]pyrazole] the value was less than 500 nM. For `N#Cc1sc2[nH]nc(N3CCC(COCCN4CCCC4)CC3)c2c1-c1ccccc1` [Compound 3, 4-phenyl-3-[4-(2-pyrrolidin-1-ylethoxymethyl)-1-piperidyl]-1H-thieno[2,3-c]pyrazole-5-carbonitrile] the value was less than 500 nM; for `c1ccc(-c2csc3[nH]nc(N4CC5CC4CC5OCCN4CCCC4)c23)cc1` (centres unmarked) [Compound 4, 4-phenyl-3-[5-(2-pyrrolidin-1-ylethoxy)-2-azabicyclo[2.2.1]heptan-2-yl]-1H-thieno[2,3-c]pyrazole], less than 500 nM.

In turn, `Fc1ccc(-c2csc3[nH]nc(N4CC5CC4CC5OCCN4CCCC4)c23)cc1` (centres unmarked) [Compound 5, 4-(4-fluorophenyl)-3-[5-(2-pyrrolidin-1-ylethoxy)-2-azabicyclo[2.2.1]heptan-2-yl]-1H-thieno[2,3-c]pyrazole] displayed a half-inhibitory concentration (IC50) of less than 500 nM. The figure for `c1ccc(-c2csc3[nH]nc(N4C5CCC4CC(COCCN4CCCC4)C5)c23)cc1` (centres unmarked) [Compound 6, 4-phenyl-3-[3-(2-pyrrolidin-1-ylethoxymethyl)-8-azabicyclo[3.2.1]octan-8-yl]-1H-thieno[2,3-c]pyrazole] is less than 500 nM; for `c1ccc(-c2csc3[nH]nc(N4C5CCC4CC(OCCN4CCCC4)C5)c23)cc1` (centres unmarked) [Compound 7, 4-phenyl-3-[3-(2-pyrrolidin-1-ylethoxy)-8-azabicyclo[3.2.1]octan-8-yl]-1H-thieno[2,3-c]pyrazole] it is less than 500 nM. For `c1ccc(-c2csc3[nH]nc(N4CCCC(COCCN5CCCC5)C4)c23)cc1` (centres unmarked) [Compound 8, 4-phenyl-3-[3-(2-pyrrolidin-1-ylethoxymethyl)-1-piperidyl]-1H-thieno[2,3-c]pyrazole] the value was less than 500 nM. The figure for `c1ccc(-c2csc3[nH]nc(N4CCC(COCCN5CCCC5)C4)c23)cc1` (centres unmarked) [Compound 9, 4-phenyl-3-[3-(2-pyrrolidin-1-ylethoxymethyl)pyrrolidin-1-yl]-1H-thieno[2,3-c]pyrazole] is less than 500 nM; for `c1ccc(-c2csc3[nH]nc(N4C5CCC4CC(NC4CCC4)C5)c23)cc1` (centres unmarked) [Compound 10, N-cyclobutyl-8-(4-phenyl-1H-thieno[2,3-c]pyrazol-3-yl)-8-azabicyclo[3.2.1]octan-3-amine] it is less than 500 nM; for `c1ccc(-c2csc3[nH]nc(N4C5CCC4CC(N4CCC4)C5)c23)cc1` (centres unmarked) [Compound 11, 3-[3-(azetidin-1-yl)-8-azabicyclo[3.2.1]octan-8-yl]-4-phenyl-1H-thieno[2,3-c]pyrazole] it is 500 to 3000 nM. `CC(C)NC1CC2CCC(C1)N2c1n[nH]c2scc(-c3ccccc3)c12` (centres unmarked) [Compound 12, N-isopropyl-8-(4-phenyl-1H-thieno[2,3-c]pyrazol-3-yl)-8-azabicyclo[3.2.1]octan-3-amine] gave an IC50 of 500 to 3000 nM.

Turning to `CC(=O)n1nc(N2CCC(COCCN3CCCC3)CC2)c2c(-c3ccccc3)csc21` [Compound 13, 1-[4-phenyl-3-[4-(2-pyrrolidin-1-ylethoxymethyl)-1-piperidyl]thieno[2,3-c]pyrazol-1-yl]ethanone], the half-maximal inhibitory concentration (IC50) was less than 500 nM.

The molecule `CC(=O)n1nc(N2CC3CC2CC3OCCN2CCCC2)c2c(-c3ccccc3)csc21` (centres unmarked) [Compound 14, 1-[4-phenyl-3-[5-(2-pyrrolidin-1-ylethoxy)-2-azabicyclo[2.2.1]heptan-2-yl]thieno[2,3-c]pyrazol-1-yl]ethanone] came in with an IC50 of less than 500 nM. For `CC(=O)n1nc(N2CC3CC2CC3OCCN2CCCC2)c2c(-c3ccc(F)cc3)csc21` (centres unmarked) [Compound 15, 1-[4-(4-fluorophenyl)-3-[5-(2-pyrrolidin-1-ylethoxy)-2-azabicyclo[2.2.1]heptan-2-yl]thieno[2,3-c]pyrazol-1-yl]ethanone] the value was less than 500 nM; for `CS(=O)(=O)n1nc(N2CC3CC2CC3OCCN2CCCC2)c2c(-c3ccc(F)cc3)csc21` (centres unmarked) [Compound 16, 4-(4-fluorophenyl)-1-methylsulfonyl-3-[5-(2-pyrrolidin-1-ylethoxy)-2-azabicyclo[2.2.1]heptan-2-yl]thieno[2,3-c]pyrazole], less than 500 nM. For `CC(=O)n1nc(N2C3CCC2CC(OCCN2CCCC2)C3)c2c(-c3ccccc3)csc21` (centres unmarked) [Compound 17, 1-[4-phenyl-3-[3-(2-pyrrolidin-1-ylethoxy)-8-azabicyclo[3.2.1]octan-8-yl]thieno[2,3-c]pyrazol-1-yl]ethanone] the value was less than 500 nM; for `CC(=O)n1nc(N2CCCC(COCCN3CCCC3)C2)c2c(-c3ccccc3)csc21` (centres unmarked) [Compound 18, 1-[4-phenyl-3-[3-(2-pyrrolidin-1-ylethoxymethyl)-1-piperidyl]thieno[2,3-c]pyrazol-1-yl]ethanone], less than 500 nM; for `CC(=O)n1nc(N2CCC(COCCN3CCCC3)C2)c2c(-c3ccccc3)csc21` (centres unmarked) [Compound 19, 1-[4-phenyl-3-[3-(2-pyrrolidin-1-ylethoxymethyl)pyrrolidin-1-yl]thieno[2,3-c]pyrazol-1-yl]ethanone], less than 500 nM. The figure for `CS(=O)(=O)n1nc(N2CCC(COCCN3CCCC3)CC2)c2c(-c3ccccc3)csc21` [Compound 20, 1-methylsulfonyl-4-phenyl-3-[4-(2-pyrrolidin-1-ylethoxymethyl)-1-piperidyl]thieno[2,3-c]pyrazole] is less than 500 nM. The molecule `Cn1nc(N2CCC(COCCN3CCCC3)CC2)c2c(-c3ccccc3)csc21` [Compound 21, 1-methyl-4-phenyl-3-[4-(2-pyrrolidin-1-ylethoxymethyl)-1-piperidyl]thieno[2,3-c]pyrazole] came in with an IC50 of less than 500 nM. The molecule `CN(C)C(=O)c1sc2c(c(N3CCC(COCCN4CCCC4)CC3)nn2C)c1-c1ccccc1` [Compound 22, N,N,1-trimethyl-4-phenyl-3-[4-(2-pyrrolidin-1-ylethoxymethyl)-1-piperidyl]thieno[2,3-c]pyrazole-5-carboxamide] showed an IC50 of 500 to 3000 nM. Consider `CN(C)C(=O)c1sc2[nH]nc(N3CCC(COCCN4CCCC4)CC3)c2c1-c1ccccc1` [Compound 23, N,N-dimethyl-4-phenyl-3-[4-(2-pyrrolidin-1-ylethoxymethyl)-1-piperidyl]-1H-thieno[2,3-c]pyrazole-5-carboxamide], for which the IC50 was in the range of 500 to 3000 nM.
